In the supplement of paper PMC10307832:

How the values were obtained:
Experiment in all cases: relative viability (nuclei count vs DMSO), 5 days (fraction); higher = more cells survive
VX-702 + Vorinostat = compound: NC(=O)c1ccc(N(C(N)=O)c2c(F)cccc2F)nc1-c1ccc(F)cc1F [VX-702] + O=C(CCCCCCC(=O)Nc1ccccc1)NO [Vorinostat] (partner 1 µM)
Method in brief: (§1)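 Relative viability was taken as the ratio of nuclei in treated wells to nuclei in vehicle wells. Lung cancer cell lines in 1536-well plates received compounds by pin tool one day after seeding, either one drug alone or a fixed anchor-drug dose plus five library-drug doses (not always all listed) in √10 steps. Nuclei were counted on 4× images after 5 days of treatment, and values are medians of duplicate plates.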

Dabrafenib + Crizotinib = compound: CC(C)(C)c1nc(-c2cccc(NS(=O)(=O)c3c(F)cccc3F)c2F)c(-c2ccnc(N)n2)s1 [Dabrafenib] + C[C@@H](Oc1cc(-c2cnn(C3CCNCC3)c2)cnc1N)c1c(Cl)ccc(F)c1Cl [Crizotinib] (partner 1 µM)
Method in brief: as §1

VX-702 + Bortezomib = compound: NC(=O)c1ccc(N(C(N)=O)c2c(F)cccc2F)nc1-c1ccc(F)cc1F [VX-702] + CC(C)C[C@H](NC(=O)[C@H](Cc1ccccc1)NC(=O)c1cnccn1)B(O)O [Bortezomib] (partner 0.002 µM)
Method in brief: as §1

Dabrafenib + Palbociclib = compound: CC(C)(C)c1nc(-c2cccc(NS(=O)(=O)c3c(F)cccc3F)c2F)c(-c2ccnc(N)n2)s1 [Dabrafenib] + CC(=O)c1c(C)c2cnc(Nc3ccc(N4CCNCC4)cn3)nc2n(C2CCCC2)c1=O [Palbociclib] (partner 0.5 µM)
Method in brief: as §1

Cell Line | relative viability (VX-702 + Vorinostat; first compound 0.02 µM) | relative viability (VX-702 + Vorinostat; first compound 0.2 µM) | relative viability (VX-702 + Vorinostat; first compound 0.6325 µM) | relative viability (VX-702 + Vorinostat; first compound 2 µM) | relative viability (Dabrafenib + Crizotinib; first compound 0.009487 µM) | relative viability (Dabrafenib + Crizotinib; first compound 0.09487 µM) | relative viability (Dabrafenib + Crizotinib; first compound 0.3 µM) | relative viability (VX-702 + Bortezomib; first compound 0.02 µM) | relative viability (VX-702 + Bortezomib; first compound 0.2 µM) | relative viability (VX-702 + Bortezomib; first compound 0.6325 µM) | relative viability (VX-702 + Bortezomib; first compound 2 µM) | relative viability (Dabrafenib + Palbociclib; first compound 0.009487 µM) | relative viability (Dabrafenib + Palbociclib; first compound 0.09487 µM) | relative viability (Dabrafenib + Palbociclib; first compound 0.3 µM) | relative viability (Dabrafenib + Crizotinib; first compound 0.03 µM) | relative viability (Dabrafenib + Palbociclib; first compound 0.03 µM) | relative viability (Dabrafenib + Crizotinib; first compound 0.003 µM) | relative viability (Dabrafenib + Palbociclib; first compound 0.003 µM)
NCI-H322M | 0.921 | 0.874 | 0.854 | 0.93 | 1.09 | 0.876 | 0.941 | 1.22 | 1.25 | 1.31 | 1.18 | 0.545 | 0.526 | 0.477 |  |  |  | 
NCI-H441 | 0.876 | 0.616 | 0.637 | 0.76 | 0.746 | 0.593 | 0.697 | 0.641 | 0.463 | 0.492 | 0.575 | 0.268 | 0.2 | 0.248 | 0.694 | 0.239 |  | 
NCI-H460 | 0.889 | 0.692 | 0.769 | 0.925 | 0.97 | 0.842 | 0.899 | 1.14 | 1.15 | 1.22 | 1.17 | 0.1 | 0.226 | 0.111 | 0.892 | 0.148 | 0.865 | 0.229
NCI-H520 | 0.744 | 0.649 | 0.691 | 0.74 | 0.752 | 0.582 | 0.664 | 0.4 | 0.663 | 0.479 | 0.677 | 0.228 | 0.241 | 0.217 | 0.732 | 0.196 | 0.756 | 0.216
NCI-H647 | 0.563 | 0.499 | 0.304 | 0.897 | 1.05 | 0.976 | 1.04 | 1.14 | 0.84 | 1.25 | 1.41 | 0.377 | 0.395 | 0.349 | 1.04 | 0.305 |  | 0.328
NCI-H650 | 0.607 | 0.309 | 0.494 | 0.609 | 0.715 | 0.515 | 0.551 | 0.802 |  | 1.05 | 1.07 | 0.375 | 0.305 | 0.238 | 0.657 | 0.308 |  | 
NCI-H661 | 0.775 | 0.786 | 0.76 | 0.816 | 0.958 | 0.96 | 1.04 | 0.731 | 0.731 | 1.11 | 1.21 | 0.406 | 0.458 | 0.433 |  | 0.426 | 1.07 | 0.383
NCI-H727 | 1.25 | 1.28 | 1.18 | 1.39 | 1.01 | 0.909 | 0.84 | 0.657 | 0.743 | 0.939 | 0.976 | 0.64 | 0.719 | 0.675 | 0.791 |  |  | 0.598
NCI-H838 | 0.737 | 0.702 | 0.751 | 0.787 | 0.905 | 0.829 | 0.979 | 0.857 | 0.94 | 0.796 | 0.937 | 0.238 | 0.214 | 0.236 | 0.759 | 0.209 | 0.858 | 0.207
NCI-H1355 | 0.694 | 0.605 | 0.689 | 0.821 | 1.05 |  | 1.03 | 1.26 | 1.22 | 1.27 | 1.26 | 0.458 | 0.409 | 0.47 | 0.927 | 0.373 |  | 
NCI-H1437 | 0.904 | 0.827 | 0.863 | 1.05 | 0.902 | 0.896 | 0.978 | 0.592 | 0.631 | 0.587 | 0.595 | 0.35 | 0.384 | 0.413 | 0.906 | 0.363 | 0.935 | 0.307
NCI-H1650 | 0.479 | 0.624 | 0.776 | 0.583 | 1.21 | 0.995 | 1.11 | 0.195 | 0.207 | 0.189 | 0.185 | 0.382 | 0.301 | 0.358 | 0.907 | 0.235 | 1.04 | 0.332
NCI-H1651 | 0.536 | 0.558 | 0.53 | 0.586 | 0.875 | 0.785 | 0.786 | 0.958 | 0.96 | 0.95 | 1.03 | 0.494 | 0.524 | 0.505 | 0.859 | 0.51 | 0.85 | 0.499
NCI-H1666 | 1.07 | 0.989 | 0.993 | 0.979 |  | 0.87 | 1.17 | 0.906 | 0.672 | 0.989 | 0.606 | 0.671 | 0.565 | 0.686 | 1.09 | 0.675 | 0.988 | 0.643
NCI-H1734 | 0.812 | 0.759 | 0.781 | 0.732 | 0.702 | 0.696 | 0.687 | 0.865 | 0.844 | 0.847 | 0.738 | 0.352 | 0.344 | 0.347 | 0.475 | 0.287 |  | 
NCI-H1755 | 0.929 | 0.748 | 0.731 | 0.877 | 0.89 | 0.824 | 0.884 | 0.964 | 0.911 | 1.07 | 0.979 | 0.425 | 0.411 | 0.415 | 0.648 | 0.435 | 0.896 | 0.429
NCI-H1915 | 0.578 | 0.513 | 0.492 | 0.548 | 0.893 | 0.752 | 0.731 | 1.06 | 0.893 | 0.991 | 1.01 | 0.579 | 0.417 | 0.508 | 0.721 | 0.447 | 0.994 | 0.52
